According to ChEMBL document CHEMBL3885881, “DrugMatrix”:

Species: Rattus norvegicus
Assay: DrugMatrix - Regimen: Daily Repeat
Format: toxicity, organism-based, Sprague-Dawley
Parameters: regimen Daily Repeat, gender Male, age 6-8 weeks
Conditions: in vivo, sc, 54 mg/kg, route subcutaneous, dose level Low, […]
[1] = 72 h, tissue Plasma, time 3 day
[2] = 120 h, tissue Blood, time 5 day
[3] = 120 h, tissue Plasma, time 5 day

Sequence: NYSTATIN
- ABSOLUTE BASOPHIL (72 h, tissue Blood, time 3 day): 0 CELLS/uL
- ABSOLUTE EOSINOPHIL (72 h, tissue Blood, time 3 day): 50 CELLS/uL
- ABSOLUTE LYMPHOCYTE (72 h, tissue Blood, time 3 day): 13843 CELLS/uL
- ABSOLUTE MONOCYTE (72 h, tissue Blood, time 3 day): 920.67 CELLS/uL
- ABSOLUTE SEGMENTED NEUTROPHIL (72 h, tissue Blood, time 3 day): 2486.33 CELLS/uL
- BASOPHIL (72 h, tissue Blood, time 3 day): 0%
- EOSINOPHIL (72 h, tissue Blood, time 3 day): 0.33%
- ERYTHROCYTE COUNT (72 h, tissue Blood, time 3 day): 5.95 x10E6/uL
- HEMATOCRIT (72 h, tissue Blood, time 3 day): 34.97%
- HEMOGLOBIN (72 h, tissue Blood, time 3 day): 13.07 G/DL
- LEUKOCYTE COUNT (72 h, tissue Blood, time 3 day): 17.3 x10E3/uL
- LYMPHOCYTE (72 h, tissue Blood, time 3 day): 80.33%
- MEAN CORPUSCULAR HEMOGLOBIN (72 h, tissue Blood, time 3 day): 21.93 pg
- MEAN CORPUSCULAR HEMOGLOBIN CONCENTRATION (72 h, tissue Blood, time 3 day): 37.37 G/DL
- MEAN CORPUSCULAR VOLUME (72 h, tissue Blood, time 3 day): 58.73 fL
- MONOCYTE (72 h, tissue Blood, time 3 day): 5.33%
- NEUTROPHIL (72 h, tissue Blood, time 3 day): 14%
- NUCLEATED RED BLOOD CELLS (72 h, tissue Blood, time 3 day): 0 /100WBC
- PLATELET COUNT (72 h, tissue Blood, time 3 day): 1209 x10E3/uL
- ALANINE AMINOTRANSFERASE [1]: 35 u/L
- ALBUMIN [1]: 2.97 G/DL
- ALKALINE PHOSPHATASE [1]: 281 u/L
- ASPARTATE AMINOTRANSFERASE [1]: 75.67 u/L
- BLOOD UREA NITROGEN [1]: 18.67 mg/dL
- CARBON DIOXIDE [1]: 21.33 mmol/L
- CHOLESTEROL [1]: 62.33 mg/dL
- CREATINE PHOSPHOKINASE [1]: 212.67 u/L
- CREATININE [1]: 0.18 mg/dL
- LACTATE DEHYDROGENASE [1]: 276.67 u/L
- LIPASE [1]: 6.67 u/L
- PHOSPHORUS [1]: 11.77 mg/dL
- POTASSIUM [1]: 6.36 MEQ/L
- SODIUM [1]: 149.8 MEQ/L
- TOTAL BILIRUBIN [1]: 0.13 mg/dL
- URIC ACID [1]: 2 mg/dL
- ABSOLUTE BASOPHIL [2]: 0 CELLS/uL
- ABSOLUTE EOSINOPHIL [2]: 278 CELLS/uL
- ABSOLUTE LYMPHOCYTE [2]: 19000 CELLS/uL
- ABSOLUTE MONOCYTE [2]: 554 CELLS/uL
- ABSOLUTE SEGMENTED NEUTROPHIL [2]: 5634.67 CELLS/uL
- BASOPHIL [2]: 0%
- EOSINOPHIL [2]: 1%
- ERYTHROCYTE COUNT [2]: 5.2 x10E6/uL
- HEMATOCRIT [2]: 32.27%
- HEMOGLOBIN [2]: 12.13 G/DL
- LEUKOCYTE COUNT [2]: 25.47 x10E3/uL
- LYMPHOCYTE [2]: 76.67%
- MEAN CORPUSCULAR HEMOGLOBIN [2]: 23.37 pg
- MEAN CORPUSCULAR HEMOGLOBIN CONCENTRATION [2]: 37.63 G/DL
- MONOCYTE [2]: 2%
- NEUTROPHIL [2]: 20.33%
- NUCLEATED RED BLOOD CELLS [2]: 0 /100WBC
- PLATELET COUNT [2]: 1747 x10E3/uL
- ALANINE AMINOTRANSFERASE [3]: 31.33 u/L
- ALBUMIN [3]: 2.63 G/DL
- ALKALINE PHOSPHATASE [3]: 261.33 u/L
- ASPARTATE AMINOTRANSFERASE [3]: 76 u/L
- BLOOD UREA NITROGEN [3]: 22.33 mg/dL
- CARBON DIOXIDE [3]: 24.67 mmol/L
- CHLORIDE [3]: 107.33 MEQ/L
- CHOLESTEROL [3]: 48.67 mg/dL
- CREATINE PHOSPHOKINASE [3]: 286 u/L
- CREATININE [3]: 0.17 mg/dL
- GLUCOSE [3]: 135 mg/dL
- LACTATE DEHYDROGENASE [3]: 423.33 u/L
- LIPASE [3]: 7 u/L
- POTASSIUM [3]: 6.66 MEQ/L
- SODIUM [3]: 147.07 MEQ/L
- TOTAL BILIRUBIN [3]: 0.1 mg/dL
- TOTAL PROTEIN [3]: 5.43 G/DL
- URIC ACID [3]: 1.73 mg/dL
